{
  "source": "patent US5936101A",
  "about": "“Process for the preparation of 1,2-dioxetane compounds and novel sulfur-substituted 1,2-dioxetane compounds as intermediates” (Lumigen, Inc., priority 1997, dated 1999)",
  "key": {"[1]": {"assay": "Fluoride (TBAF in DMSO) induced chemiluminescence", "assay_type": "physicochemical"}, "[2]": {"assay": "Thermal stability / stability on silica of dioxetanes", "assay_type": "physicochemical", "conditions": "TLC on silica versus NMR", "excerpt": "(c) Synthesis of 4-ethylthio-4-(3-pivaloyloxyphenyl)spiro-[1,2-dioxetane-3,2'-tricyclo[3.3.1.1^3,7 ]decane] (2)."}, "[3]": {"assay": "Base-induced decay of chemiluminescence of hydroxyphenyl alkylthio dioxetane in 221 buffer pH 9.6 with surfactant enhancers", "assay_type": "physicochemical", "conditions": "for t1/2 (decay of chemiluminescence): 0.2 M 221 buffer, pH 9.6, 0.88 mM Mg+2, ambient temperature", "method": "The first order decay of chemiluminescence of dioxetane 3 in 0.2 M 221 buffer, pH 9.6 containing 0.88 mM Mg^+2 and the surfactant enhancers shown below was measured at ambient temperature. Surfactant A is CTAB, B is poly(vinylbenzyltributylphosphonium chloride), C is poly(vinylbenzyltributylphosphonium chloride)-co-poly(vinylbenzyltrioctylphosphonium chloride), D is 1-trioctylphoniummethyl-4-tributylphosphonium-methylbenzene dichloride."}, "[4]": {"assay": "Base-induced decay of chemiluminescence of hydroxyphenyl alkoxy or aryloxy dioxetanes in 221 buffer pH 9.6", "assay_type": "physicochemical", "conditions": "0.2 M 221 buffer, 0.88 mM Mg+2, 1.0 mg/mL 1-trioctylphosphoniummethyl-4-tributylphosphoniummethylbenzene dichloride", "method": "The first order decay of chemiluminescence of dioxetanes 14-19 in 0.2 M 2-methyl-2-amino-1-propanol (221) buffer, pH 9.6 containing 0.88 mM Mg^+2 and 1.0 mg/mL of 1-trioctylphosphoniummethyl-4-tributylphosphoniummethylbenzene dichloride was measured at 37° C. in a Turner Designs (Sunnyvale, Calif.) model TD-20e luminometer. The half-lives of decay of chemiluminescence (t1/2) of hydroxy-dioxetanes correlate with the times required to reach the maximum light intensity (Imax) in the alkaline phosphatase-triggered decomposition of the corresponding phosphate-dioxetanes under the same conditions. […] It is expected that, for example, the phosphate derivatives of dioxetanes 14-19 as well as others which can be produced by the process described herein will be useful in alkaline phosphatase-linkedassays known in the art."}, "[5]": {"assay": "Chemiluminescence on heating"}},
  "data": [
    {"smiles": "CCSC1(c2cccc(O)c2)OOC12C1CC3CC(C1)CC2C3", "note": "(centres unmarked) [Dioxetane 1, 4-Ethylthio-4-(3-hydroxyphenyl)spiro[1,2-dioxetane-3,2'-tricyclo[3.3.1.1^3,7]decane]]", "values": [
      {"measurement": "chemiluminescence colour", "setting": "[1]; 0.1 M TBAF in DMSO", "result": "yellow emission"},
      {"measurement": "chemiluminescence colour", "setting": "[1]; excess TBAF in DMSO", "result": "yellow chemiluminescence"}
    ]},
    {"smiles": "CCSC1(c2cccc(OC(=O)C(C)(C)C)c2)OOC12C1CC3CC(C1)CC2C3", "note": "(centres unmarked) [Dioxetane 2, 4-Ethylthio-4-(3-pivaloyloxyphenyl)spiro[1,2-dioxetane-3,2'-tricyclo-[3.3.1.1^3,7]decane]]", "values": [
      {"measurement": "chemiluminescence colour", "setting": "[1]; excess TBAF in DMSO", "result": "yellow chemiluminescence"},
      {"measurement": "stability on silica", "setting": "[2]", "result": "less stable on silica"}
    ]},
    {"smiles": "Oc1cccc(C2(Sc3ccc(F)cc3)OOC23C2CC4CC(C2)CC3C4)c1", "note": "(centres unmarked) [Dioxetane 3, 4-(p-Fluorophenylthio)-4-(3-hydroxyphenyl)spiro[1,2-dioxetane-3,2'-tricyclo-[3.3.1.1^3,7]decane]]", "values": [
      {"measurement": "t1/2 (decay of chemiluminescence)", "setting": "[3]; Surfactant A (CTAB) 0.41 g/L", "result": 11.2, "unit": "min"},
      {"measurement": "t1/2 (decay of chemiluminescence)", "setting": "[3]; Surfactant B (poly(vinylbenzyltributylphosphonium chloride)) 0.5 g/L", "result": 4.2, "unit": "min"},
      {"measurement": "t1/2 (decay of chemiluminescence)", "setting": "[3]; Surfactant C (poly(vinylbenzyltributylphosphonium chloride)-co-poly(vinylbenzyltrioctylphosphonium chloride)) 0.5 g/L", "result": 2.9, "unit": "min"},
      {"measurement": "t1/2 (decay of chemiluminescence)", "setting": "[3]; Surfactant D (1-trioctylphoniummethyl-4-tributylphosphonium-methylbenzene dichloride) 1.0 g/L", "result": 2.0, "unit": "min"},
      {"measurement": "kinetics for light emission compared with dioxetane 6 or alkoxy-substituted analogues", "setting": "[3]; alkaline amine buffer containing metal salts", "result": "comparable to dioxetane 6"}
    ]},
    {"smiles": "CC(C)(C)C(=O)Oc1cccc(C2(Sc3ccc(F)cc3)OOC23C2CC4CC(C2)CC3C4)c1", "note": "(centres unmarked) [Dioxetane 4, 4-(p-Fluorophenylthio)-4-(3-pivaloyloxyphenyl)spiro[1,2-dioxetane-3,2'tricyclo-[3.3.1.1^3,7]decane]]", "values": [
      {"measurement": "chemiluminescence colour", "setting": "[1]; 0.1 M TBAF in DMSO", "result": "yellow emission"},
      {"measurement": "chemiluminescence colour", "setting": "[1]; excess TBAF in DMSO", "result": "red chemiluminescence"}
    ]},
    {"smiles": "Oc1cccc(C2(SCC(F)(F)F)OOC23C2CC4CC(C2)CC3C4)c1", "note": "(centres unmarked) [Dioxetane 5, 4-(2,2,2-trifluoroethylthio)-4-(3-hydroxyphenyl)spiro[1,2-dioxetane-3,2'-tricyclo[3.3.1.1^3,7]decane]]", "values": [
      {"measurement": "chemiluminescence colour", "setting": "[1]; excess TBAF in DMSO", "result": "orange-yellow light"}
    ]},
    {"smiles": "COC1(c2cccc(O)c2)OOC12C1CC3CC(C1)CC2C3", "note": "(centres unmarked) [Dioxetane 6, 4-(3-Hydroxyphenyl)-4-methoxyspiro[1,2-dioxetane-3,2'-tricyclo[3.3.1.1^3,7]decane]]", "values": [
      {"measurement": "chemiluminescence colour", "setting": "[1]; 0.1 M TBAF in DMSO", "result": "blue emission"}
    ]},
    {"smiles": "CC(C)OC1(c2cccc(O)c2)OOC12C1CC3CC(C1)CC2C3", "note": "(centres unmarked) [Dioxetane 7, 4-Isopropoxy-4-(3-hydroxyphenyl)spiro[1,2-dioxetane-3,2'-tricyclo[3.3.1.1^3,7]decane]]", "values": [
      {"measurement": "chemiluminescence colour", "setting": "[1]; 0.1 M TBAF in DMSO", "result": "blue emission"}
    ]},
    {"smiles": "C=CCOC1(c2cccc(O)c2)OOC12C1CC3CC(C1)CC2C3", "note": "(centres unmarked) [Dioxetane 8, 4-(3-Hydroxyphenyl)-4-(2-propenyloxy) spiro[1,2-dioxetane-3,2'-tricyclo[3.3.1.1^3,7]decane]]", "values": [
      {"measurement": "chemiluminescence colour", "setting": "[1]; 0.1 M TBAF in DMSO", "result": "blue emission"}
    ]},
    {"smiles": "N#CCCOC1(c2cccc(O)c2)OOC12C1CC3CC(C1)CC2C3", "note": "(centres unmarked) [Dioxetane 9, 4-(2-Cyanoethoxy)-4-(3-hydroxyphenyl)spiro[1,2-dioxetane-3,2'-tricyclo-[3.3.1.1^3,7]decane]]", "values": [
      {"measurement": "chemiluminescence colour", "setting": "[1]; 0.1 M TBAF in DMSO", "result": "blue emission"}
    ]},
    {"smiles": "OCCOC1(c2cccc(O)c2)OOC12C1CC3CC(C1)CC2C3", "note": "(centres unmarked) [Dioxetane 10, 4-(2-Hydroxyethoxy)-4-(3-hydroxyphenyl)spiro[1,2-dioxetane-3,2'-tricyclo-[3.3.1.1^3,7]decane]]", "values": [
      {"measurement": "chemiluminescence colour", "setting": "[1]; 0.1 M TBAF in DMSO", "result": "blue emission"}
    ]},
    {"smiles": "Oc1cccc(C2(Oc3ccccc3)OOC23C2CC4CC(C2)CC3C4)c1", "note": "(centres unmarked) [Dioxetane 11, 4-(3-Hydroxyphenyl)-4-phenoxyspiro[1,2-dioxetane-3,2'-tricyclo[3.3.1.1^3,7]decane]]", "values": [
      {"measurement": "chemiluminescence colour", "setting": "[1]; 0.1 M TBAF in DMSO", "result": "blue emission"}
    ]},
    {"smiles": "Oc1cccc(C2(OC(C(F)(F)F)C(F)(F)F)OOC23C2CC4CC(C2)CC3C4)c1", "note": "(centres unmarked) [Dioxetane 14, 4-(Hexafluoroisopropoxy)-4-(3-hydroxyphenyl)spiro[1,2-dioxetane-3,2'-tricyclo-[3.3.1.1^3,7]decane]]", "values": [
      {"measurement": "t1/2 37° C. (half-life of decay of chemiluminescence)", "setting": "[4]", "result": 0.16, "unit": "min"}
    ]},
    {"smiles": "Oc1cccc(C2(OCC(Cl)(Cl)Cl)OOC23C2CC4CC(C2)CC3C4)c1", "note": "(centres unmarked) [Dioxetane 15, 4-(3-Hydroxyphenyl)-4-(2 2,2-trichloroethoxy)spiro[1,2-dioxetane-3,2'-tricyclo-[3.3.1.1^3,7]decane]]", "values": [
      {"measurement": "t1/2 37° C. (half-life of decay of chemiluminescence)", "setting": "[4]", "result": 3.7, "unit": "min"}
    ]},
    {"smiles": "Oc1cccc(C2(OCC(Cl)Cl)OOC23C2CC4CC(C2)CC3C4)c1", "note": "(centres unmarked) [Dioxetane 16, 4-(2,2-Dichloroethoxy)-4-(3-hydroxyphenyl)spiro[1,2-dioxetane-3,2'-tricyclo-[3.3.1.1^3,7]decane]]", "values": [
      {"measurement": "t1/2 37° C. (half-life of decay of chemiluminescence)", "setting": "[4]", "result": 4.1, "unit": "min"}
    ]},
    {"smiles": "Oc1cccc(C2(OCC(F)(F)C(F)(F)F)OOC23C2CC4CC(C2)CC3C4)c1", "note": "(centres unmarked) [Dioxetane 17, 4-(3-Hydroxyphenyl)-4-(2,2,3,3,3-pentafluoropropoxy)spiro[1,2-dioxetane-3,2'-tricyclo[3.3.1.1^3,7]decane]]", "values": [
      {"measurement": "t1/2 37° C. (half-life of decay of chemiluminescence)", "setting": "[4]", "result": 3.4, "unit": "min"}
    ]},
    {"smiles": "Oc1cccc(C2(OCC(F)(F)C(F)(F)C(F)(F)F)OOC23C2CC4CC(C2)CC3C4)c1", "note": "(centres unmarked) [Dioxetane 18, 4-(2,2,3,3,4,4,4-Heptafluorobutoxy)-4-(3-hydroxyphenyl)spiro[1,2-dioxetane-3,2'-tricyclo[3.3.1.1^3,7]decane]]", "values": [
      {"measurement": "t1/2 37° C. (half-life of decay of chemiluminescence)", "setting": "[4]", "result": 4.9, "unit": "min"}
    ]},
    {"smiles": "Oc1cccc(C2(Oc3c(F)cccc3F)OOC23C2CC4CC(C2)CC3C4)c1", "note": "(centres unmarked) [Dioxetane 19, 4-(2',6'-Difluorophenoxy)-4-(3-hydroxyphenyl)spiro[1,2-dioxetane-3,2'-tricyclo[3.3.1.1^3,7]decane]]", "values": [
      {"measurement": "t1/2 37° C. (half-life of decay of chemiluminescence)", "setting": "[4]", "result": 1.76, "unit": "min"}
    ]},
    {"smiles": "COC1(c2cccc(OC(=O)C(C)(C)C)c2)OOC12C1CC3CC(C1)CC2C3", "note": "(centres unmarked) [Dioxetane 20, 4-Methoxy-4-(3-pivaloyloxyphenyl)spiro[1,2-dioxetane-3,2'-tricyclo-[3.3.1.1^3,7]decane]]", "values": [
      {"measurement": "chemiluminescence colour", "setting": "[1]; 0.1 M TBAF in DMSO", "result": "blue emission"}
    ]},
    {"smiles": "COC1(c2cccc(O[Si](C)(C)C(C)(C)C)c2)OOC12C1CC3CC(C1)CC2C3", "note": "(centres unmarked) [Dioxetane 21]", "values": [
      {"measurement": "chemiluminescence colour", "setting": "[1]; 0.1 M TBAF in DMSO", "result": "blue chemiluminescence"},
      {"measurement": "chemiluminescence on heating", "setting": "[5]", "result": "blue chemiluminescence"}
    ]},
    {"smiles": "COC1(c2cccc(O[Si](c3ccccc3)(c3ccccc3)C(C)(C)C)c2)OOC12C1CC3CC(C1)CC2C3", "note": "(centres unmarked) [Dioxetane 22]", "values": [
      {"measurement": "chemiluminescence colour", "setting": "[1]; 0.1 M TBAF in DMSO", "result": "blue chemiluminescence"},
      {"measurement": "chemiluminescence on heating", "setting": "[5]", "result": "blue chemiluminescence"}
    ]}
  ]
}
